The target of one assay is mGlu2 (Rattus norvegicus (Rat), UniProt P31421). Description: mGlu2 GIRK thallium flux assay.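 On all read-outs here: Cell-based assay, rate of fluorescence rise right after thallium plus agonist addition read on a kinetic imaging plate reader, normalized to vehicle and maximal agonist control.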 Particulars: for EC50: read-out: mGlu2 PAM EC50, test compound, then EC20 glutamate […] later in the presence of thallium; for EC50 / mGlu2 PAM Max: PAM mode, mean ± SEM, at least three experiments; for Emax: read-out: mGlu2 PAM Max; for mGlu2 PAM Max: % Glutamate Max.
A further assay has as its target mGlu3 (Rattus norvegicus (Rat), UniProt P31422). The assay is described as follows: mGlu3 GIRK thallium flux assay.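 On all read-outs here: kinetic fluorescence slope read shortly after thallium plus agonist addition, scaled between vehicle and maximal agonist control.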 Particulars: for EC50: read-out: mGlu3 PAM EC50, test compound, then EC20 glutamate […] later in the presence of thallium; for EC50 / mGlu3 PAM Max: PAM mode, mean ± SEM; for Emax: read-out: mGlu3 PAM Max; for mGlu3 PAM Max: % Glutamate Max.

mGlu2, sequence (P31421 19-872): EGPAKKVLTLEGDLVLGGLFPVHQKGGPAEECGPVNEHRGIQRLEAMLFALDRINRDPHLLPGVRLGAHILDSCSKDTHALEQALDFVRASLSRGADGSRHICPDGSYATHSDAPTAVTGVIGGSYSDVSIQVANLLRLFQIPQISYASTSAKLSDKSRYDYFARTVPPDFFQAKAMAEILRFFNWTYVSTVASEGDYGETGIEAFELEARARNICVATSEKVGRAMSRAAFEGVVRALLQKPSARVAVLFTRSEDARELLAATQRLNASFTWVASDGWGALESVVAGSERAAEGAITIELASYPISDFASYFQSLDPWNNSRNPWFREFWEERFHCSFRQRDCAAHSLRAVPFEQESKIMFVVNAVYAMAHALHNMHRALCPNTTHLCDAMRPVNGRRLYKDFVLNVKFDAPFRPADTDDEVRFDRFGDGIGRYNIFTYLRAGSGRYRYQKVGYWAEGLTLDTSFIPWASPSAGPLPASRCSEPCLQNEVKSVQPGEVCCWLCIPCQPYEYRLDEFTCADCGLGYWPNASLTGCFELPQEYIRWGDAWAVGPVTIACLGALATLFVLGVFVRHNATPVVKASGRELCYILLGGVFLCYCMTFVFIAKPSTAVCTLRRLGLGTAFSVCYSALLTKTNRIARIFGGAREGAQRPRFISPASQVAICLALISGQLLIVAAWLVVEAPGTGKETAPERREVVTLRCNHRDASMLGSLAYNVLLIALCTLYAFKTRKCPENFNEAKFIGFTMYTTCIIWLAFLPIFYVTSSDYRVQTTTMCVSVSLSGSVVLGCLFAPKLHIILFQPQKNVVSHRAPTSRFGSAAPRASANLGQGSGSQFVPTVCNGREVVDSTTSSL
mGlu3, sequence (P31422 23-879): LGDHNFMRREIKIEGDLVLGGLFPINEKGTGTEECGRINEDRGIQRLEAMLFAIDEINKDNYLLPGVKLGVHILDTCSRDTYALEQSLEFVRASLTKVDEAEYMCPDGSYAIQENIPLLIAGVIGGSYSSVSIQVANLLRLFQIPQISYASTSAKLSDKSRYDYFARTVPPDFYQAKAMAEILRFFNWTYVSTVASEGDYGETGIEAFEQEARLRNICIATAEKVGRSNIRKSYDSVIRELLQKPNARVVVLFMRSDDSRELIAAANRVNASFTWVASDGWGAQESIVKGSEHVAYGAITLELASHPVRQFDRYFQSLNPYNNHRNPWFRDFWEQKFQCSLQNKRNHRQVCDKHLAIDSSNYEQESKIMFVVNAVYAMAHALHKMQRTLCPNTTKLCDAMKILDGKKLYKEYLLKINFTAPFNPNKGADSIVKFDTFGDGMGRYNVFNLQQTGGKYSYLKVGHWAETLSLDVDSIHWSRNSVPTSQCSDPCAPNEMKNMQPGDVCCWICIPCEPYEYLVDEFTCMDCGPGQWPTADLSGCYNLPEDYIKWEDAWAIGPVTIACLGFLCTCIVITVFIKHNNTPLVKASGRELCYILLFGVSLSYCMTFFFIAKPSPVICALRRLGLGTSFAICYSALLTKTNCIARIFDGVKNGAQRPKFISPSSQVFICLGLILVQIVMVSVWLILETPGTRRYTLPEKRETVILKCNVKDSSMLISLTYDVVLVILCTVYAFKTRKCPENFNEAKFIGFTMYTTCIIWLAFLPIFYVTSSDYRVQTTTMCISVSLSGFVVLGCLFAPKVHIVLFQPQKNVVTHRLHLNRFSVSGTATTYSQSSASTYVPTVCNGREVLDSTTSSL

Take `Cc1c(OCc2cccc(-c3cc(C(=O)O)cc([N+](=O)[O-])c3)c2)ccc(C(=O)CC(C)(C)C)c1O` [compound 146, 3′-((4-(3,3-Dimethylbutanoyl)-3-hydroxy-2-methylphenoxy)methyl)-5-nitro-[1,1′-biphenyl]-3-carboxylic acid]: the EC50 at mGlu2 was found to be 564 ± 156 nM; on mGlu3, 2130 ± 812 nM. Further, the Emax on mGlu2 was found to be 98.7 ± 5.9%; at mGlu3, 74.5 ± 11.7%.

In the case of `Cc1c(OCc2cnc(-c3cccc(C(=O)O)c3)cn2)ccc(C(=O)CC(C)(C)C)c1O` [compound 163, 3-(5-((4-(3,3-Dimethylbutanoyl)-3-hydroxy-2-methylphenoxy)methyl)pyrazin-2-yl)benzoic acid], on mGlu2, the EC50 was 1450 ± 15 nM and the Emax stood at 105 ± 1.6%. In addition, at mGlu3, the EC50 stood at 268 ± 5 nM and the Emax is 113 ± 5.4%.

With `Cc1c(OCc2cccc(-c3cccc(C(=O)O)c3)c2)ccc(C(=O)CCC(C)(C)C)c1O` [compound 148], on mGlu2, the “mGlu2 PAM Max” value was found to be 100 ± 3.9% and the EC50 was 2110 ± 215 nM. Moreover, on mGlu3, the “mGlu3 PAM Max” value was 101.7 ± 2.7% and the EC50 amounted to 2580 ± 272 nM.

On to `Cc1c(OCc2cccc(-c3ccc(O)c(C(=O)O)c3)c2)ccc(C(=O)CC(C)(C)C)c1O` [compound 144, 3′-((4-(3,3-dimethylbutanoyl)-3-hydroxy-2-methylphenoxy)methyl)-4-hydroxy-[1,1′-biphenyl]-3-carboxylic acid], for which the EC50 is 232 ± 16 nM on mGlu2 and 701 ± 176 nM on mGlu3. For the same compound, the Emax was 59.6 ± 4% on mGlu2 and 46.9 ± 5.6% on mGlu3.

Regarding `Cc1c(OCCCCOc2ccc3c(c2)B(O)OC3)ccc(C(=O)CC(C)(C)C)c1O` [compound 94, 1-(2-Hydroxy-4-(4-((1-hydroxy-1,3-dihydrobenzo [c][1,2]oxaborol-6-yl)oxy)butoxy)-3-methylphenyl)-3,3-dimethylbutan-1-one], the Emax at mGlu2 was found to be 83.9 ± 3.4%; at mGlu3, 94 ± 3.8%.

`Cc1c(OCc2cccc(-c3cnc(C(=O)O)cn3)c2)ccc(C(=O)CC(C)(C)C)c1O` [Compound 181, 5-(3-((4-(3,3-Dimethylbutanoyl)-3-hydroxy-2-methylphenoxy)methyl)phenyl)pyrazine-2-carboxylic acid]: on mGlu2, the EC50 was 2134 ± 8 nM and the Emax was found to be 105 ± 3.4%. Besides, on mGlu3, the EC50 came out at 4280 ± 64 nM and the Emax is 106 ± 2.1%.

In the case of `COc1ccc(-c2nnn[nH]2)cc1OCCCCOc1ccc(C(=O)CC(C)(C)C)c(O)c1C` [compound 92, 1-(2-Hydroxy-4-(4-(2-methoxy-5-(1H-tetrazol-5-yl)phenoxy)butoxy)-3-methylphenyl)-3,3-dimethylbutan-1-one], the Emax at mGlu2 came out at 91.2 ± 1.1%; on mGlu3, 96.7 ± 4%.

Turning to `Cc1c(OCc2cccc(-c3ccc(C(=O)O)c(Cl)c3)c2)ccc(C(=O)CC(C)(C)C)c1O` [compound 141, 3-Chloro-3′-((4-(3,3-dimethylbutanoyl)-3-hydroxy-2-methylphenoxy)methyl)-[1,1′-biphenyl]-4-carboxylic acid], the EC50 on mGlu2 amounted to 391 ± 103 nM; on mGlu3 it was 656 ± 265 nM. In addition, the results for the Emax at mGlu2 and at mGlu3 were 67 ± 6.4% and 54.9 ± 9.7%, respectively.

Take `COC(=O)c1ccc(OCCCCOc2ccc(C(=O)CC(C)C)c(O)c2C)cc1` [Compound 16, Methyl 4-(4-(3-hydroxy-2-methyl-4-(3-methylbutanoyl)phenoxy)butoxy)benzoate]: the EC50 on mGlu2 and on mGlu3 was greater than 30000 nM each time.

Regarding `Cc1c(OCCCCOc2ccccn2)ccc(C(=O)CC(C)C)c1C` [Compound 183], the EC50 on mGlu2 is greater than 10000 nM; on mGlu3, greater than 30000 nM.

In the case of `Cc1c(OCc2cccc(-c3cc(C(=O)O)ccc3F)c2)ccc(C(=O)CC(C)(C)C)c1O` [compound 139, 3′-((4-(3,3-Dimethylbutanoyl)-3-hydroxy-2-methylphenoxy)methyl)-6-fluoro-[1,1′-biphenyl]-3-carboxylic acid], at mGlu2, the EC50 was 436 ± 84 nM and the Emax was 88.2 ± 5.1%. Also, at mGlu3, the EC50 is 1100 ± 330 nM and the Emax came out at 85.6 ± 5.5%.

For the compound `COc1ccc(C(=O)NS(C)(=O)=O)cc1OCCCCOc1ccc(C(=O)CC(C)(C)C)c(O)c1C` [compound 93, 3-(4-(4-(3,3-Dimethylbutanoyl)-3-hydroxy-2-methylphenoxy)butoxy)-4-methoxy-N-(methylsulfonyl)benzamide], on mGlu2, the EC50 is 250 ± 55 nM and the Emax amounted to 98.1 ± 1.1%. In addition, on mGlu3, the EC50 came to 265 ± 50 nM and the Emax was found to be 110 ± 1.3%.

On to `COc1ccc(-c2noc(=O)[nH]2)cc1OCCCCOc1ccc(C(=O)CC(C)(C)C)c(O)c1C` [compound 98, 3-(3-(4-(4-(3,3-Dimethylbutanoyl)-3-hydroxy-2-methylphenoxy)butoxy)-4-methoxyphenyl)-1,2,4-oxadiazol-5(4H)-one], for which, on mGlu2, the EC50 was 681 ± 90 nM and the Emax turned out to be 101 ± 2.9%. Also, on mGlu3, the EC50 stood at 1230 ± 185 nM and the Emax was determined as 102 ± 4.7%.

Take `Cc1c(OCc2ccc(-c3cccc(C(=O)O)c3)cc2)ccc(C(=O)CC(C)(C)C)c1O` [compound 142, 4′-((4-(3,3-Dimethylbutanoyl)-3-hydroxy-2-methylphenoxy)methyl)-[1,1′-biphenyl]-3-carboxylic acid]: at mGlu2, the EC50 is 3180 ± 626 nM and the Emax came to 97.1 ± 8.2%. Besides, on mGlu3, the EC50 worked out at 2200 ± 753 nM and the Emax was 88.7 ± 9.5%.

On to `Cc1c(OCc2cccc(-c3ccc(C(=O)O)cc3Cl)c2)ccc(C(=O)CC(C)(C)C)c1O` [compound 147, 2-Chloro-3′-((4-(3,3-dimethylbutanoyl)-3-hydroxy-2-methylphenoxy)methyl)-[1,1′-biphenyl]-4-carboxylic acid], for which, at mGlu2, the EC50 was determined as 460 ± 158 nM and the Emax stood at 98.6 ± 5.7%. At mGlu3, the EC50 turned out to be 2280 ± 827 nM and the Emax was 81.4 ± 9.7%.

In the case of `Cc1c(OCc2nnc(-c3cccc(C(=O)O)c3)s2)ccc(C(=O)CC(C)(C)C)c1O` [compound 165, 3-(5-((4-(3,3-Dimethylbutanoyl)-3-hydroxy-2-methylphenoxy)methyl)-1,3,4-thiadiazol-2-yl)benzoic acid], on mGlu2, the EC50 was found to be 1658 ± 8 nM and the Emax was 85.6 ± 1.3%. At mGlu3, the EC50 was determined as 1410 ± 34 nM and the Emax stood at 95 ± 2.5%.

As for `Cc1c(OCCCCOc2ccccn2)ccc(C(=O)CC2CCCC2)c1C` [Compound 194], the EC50 is greater than 10000 nM on mGlu2 and greater than 30000 nM at mGlu3.

For the compound `Cc1c(OCCCCOc2ccc(C(=O)O)cc2)ccc(C(=O)CC2CCCC2)c1C` [Compound 19, 4-(4-(4-(2-Cyclopentylacetyl)-2,3-dimethylphenoxy)butoxy)benzoic acid], the EC50 on mGlu2 and on mGlu3 was greater than 30000 nM each time.

Consider `Cc1c(OCc2cccc(-c3ccc(Cl)c(C(=O)O)c3)c2)ccc(C(=O)CC2CCCC2)c1C` [compound 171], for which, at mGlu2, the “mGlu2 PAM Max” value was 12.3 ± 1.2% and the EC50 was greater than 30000 nM. For the same compound, at mGlu3, the “mGlu3 PAM Max” value is 10.7 ± 1.0% and the EC50 is greater than 30000 nM.

For the compound `CNC(=O)c1ccc(OC)c(OCCCCOc2ccc(C(=O)CC(C)(C)C)c(O)c2C)c1` [compound 102, 3-(4-(4-(3,3-Dimethylbutanoyl)-3-hydroxy-2-methylphenoxy)butoxy)-4-methoxy-N-methylbenzamide], on mGlu2, the EC50 came out at 5160 ± 82 nM and the Emax was 70.9 ± 2.3%. In addition, at mGlu3, the EC50 is greater than 10000 nM and the Emax was found to be 39.2 ± 5.2%.

Consider `Cc1c(OCc2cccc(-c3ccc(Cl)c(C(=O)O)c3)c2)ccc(C(=O)CC(C)C)c1O` [compound 169], for which, at mGlu2, the “mGlu2 PAM Max” value is listed as 77.6 ± 1.8% and the 50% effective concentration (EC50) stood at 278 ± 49 nM. Further, on mGlu3, the “mGlu3 PAM Max” value is 76.1 ± 5.1% and the EC50 was 2990 ± 359 nM.

Take `Cc1c(OCc2cccc(COc3ccc(C#N)cc3)c2)ccc(C(=O)CC(C)C)c1C` [compound 115]: the EC50 on mGlu2 and on mGlu3 was greater than 30000 nM each time.

For `Cc1c(OCc2cccc(-c3cccc(-c4noc(=O)[nH]4)c3)c2)ccc(C(=O)CC(C)(C)C)c1O` [compound 157, 3-(3′-((4-(3,3-Dimethylbutanoyl)-3-hydroxy-2-methylphenoxy)methyl)-[1,1′-biphenyl]-3-yl)-1,2,4-oxadiazol-5(4H)-one], the Emax on mGlu2 turned out to be 111 ± 6.6%; at mGlu3 it was 105 ± 2.8%.

For the compound `Cc1c(OCc2cccc(-c3ccc(F)c(C(=O)O)c3)c2)ccc(C(=O)CC(C)(C)C)c1O` [compound 135, 3′-((4-(3,3-Dimethylbutanoyl)-3-hydroxy-2-methylphenoxy)methyl)-4-fluoro-[1,1′-biphenyl]-3-carboxylic acid], on mGlu2, the 50% effective concentration (EC50) is 208 ± 20 nM and the Emax was 88.5 ± 3.8%. Moreover, at mGlu3, the EC50 worked out at 587 ± 129 nM and the Emax turned out to be 74.4 ± 5%.

Turning to `Cc1c(OCc2cccc(COc3ccc(C#N)cc3)c2)ccc(C(=O)CC(C)C)c1O` [compound 118], the EC50 at mGlu2 and at mGlu3 was greater than 30000 nM throughout.

For the compound `COc1ccc(C(=O)N2CCN(S(C)(=O)=O)CC2)cc1OCCCCOc1ccc(C(=O)CC(C)(C)C)c(O)c1C` [compound 107, 1-{2-Hydroxy-4-[4-(2-methoxy-5-{[4-(methylsulfonyl)piperazinyl]carbonyl}phenoxy)butoxy]-3-methylphenyl}-3,3-dimethylbutan-1-one], at mGlu2, the “mGlu2 PAM Max” value is on record as 22.1 ± 1.1% and the EC50 is greater than 30000 nM. In addition, on mGlu3, the “mGlu3 PAM Max” value was found to be 22.9 ± 1.5% and the EC50 was greater than 30000 nM.

For `CCCc1c(OCCCCOc2ccc(C(=O)O)cc2C)ccc(C(C)=O)c1O` [Compound 191, 4-(4-(4-Acetyl-3-hydroxy-2-propylphenoxy)butoxy)-3-methylbenzoic acid], the Emax at mGlu2 is 43.8 ± 5.4%; on mGlu3, 0.1 ± 7.7%.

A word on the EC50: it is the concentration at which the effect is half-maximal.

The values are drawn from patent publication US10099993B2, “Metabotropic glutamate receptor positive allosteric modulators (PAMS) and uses thereof” (Sanford-Burnham Medical Research Institute, priority 2014, dated 2018).
